Consider 52 compounds from patent publication US20150284375A1 (AJINOMOTO CO., INC., priority 2012, published 2015).

T1 sequence (O75762 whole entry): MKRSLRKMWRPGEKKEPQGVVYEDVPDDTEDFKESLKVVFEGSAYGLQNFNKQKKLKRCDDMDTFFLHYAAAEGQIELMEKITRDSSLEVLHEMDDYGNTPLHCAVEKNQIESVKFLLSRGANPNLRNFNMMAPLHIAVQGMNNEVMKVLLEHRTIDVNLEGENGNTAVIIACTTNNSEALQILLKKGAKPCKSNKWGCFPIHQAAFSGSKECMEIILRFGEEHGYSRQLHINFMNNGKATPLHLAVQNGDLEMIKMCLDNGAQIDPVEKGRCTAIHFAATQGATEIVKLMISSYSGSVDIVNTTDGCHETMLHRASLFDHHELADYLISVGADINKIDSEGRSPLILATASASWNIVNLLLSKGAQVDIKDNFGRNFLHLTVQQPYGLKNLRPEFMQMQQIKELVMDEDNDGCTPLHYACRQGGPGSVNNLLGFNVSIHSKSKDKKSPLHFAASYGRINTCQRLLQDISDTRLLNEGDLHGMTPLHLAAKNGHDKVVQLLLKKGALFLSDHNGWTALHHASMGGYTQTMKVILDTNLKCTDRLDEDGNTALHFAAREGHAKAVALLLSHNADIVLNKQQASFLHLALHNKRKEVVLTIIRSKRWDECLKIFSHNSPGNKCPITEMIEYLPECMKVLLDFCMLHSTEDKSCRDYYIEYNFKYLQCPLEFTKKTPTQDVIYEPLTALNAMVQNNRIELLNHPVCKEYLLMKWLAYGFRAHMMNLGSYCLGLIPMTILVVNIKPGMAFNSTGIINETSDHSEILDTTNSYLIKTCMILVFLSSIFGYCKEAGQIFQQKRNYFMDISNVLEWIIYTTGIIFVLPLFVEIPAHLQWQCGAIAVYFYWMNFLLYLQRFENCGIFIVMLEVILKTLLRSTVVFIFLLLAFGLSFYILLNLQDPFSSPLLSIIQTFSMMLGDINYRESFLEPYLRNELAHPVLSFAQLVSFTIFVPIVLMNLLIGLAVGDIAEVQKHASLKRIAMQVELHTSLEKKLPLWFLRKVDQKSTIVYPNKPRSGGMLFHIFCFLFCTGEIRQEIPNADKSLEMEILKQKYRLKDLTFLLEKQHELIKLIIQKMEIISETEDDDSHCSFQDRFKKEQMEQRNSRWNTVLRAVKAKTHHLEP

One assay concerns the target T1, human TRPA1 (Homo sapiens, UniProt O75762).
T1 construct: expressed in transfected cells; host or cells: Human embryonic kidney-derived 293T cells, transiently transfected with the pcDNA3.1/zeo(+) human TRPA1 plasmid
Nature of the assay: Measurement of TRPA1 antagonist activity (intracellular calcium increase, FLIPR, allylisothiocyanate stimulation). As to conditions: 293T cells transfected with human TRPA1; allylisothiocyanate 20 μM; concentration for 50% inhibitory rate; read-out: antagonism hTRPA1. Format: cell-based. Put shortly:
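IC50 derives from a sigmoid fit of inhibition of the 5-min FLIPR fluorescence change evoked by 20 μM allylisothiocyanate, normalized between agonist and buffer responses. Test substance, diluted in HBSS/20 mM HEPES pH 7.2 plus 0.1% BSA, was applied 10 min beforehand at room temperature to Calcium4-loaded 293T cells transiently expressing human TRPA1.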
(In general: Calcium flux is commonly read through the fluorescence of an indicator in the cells.)
Take `O=C(NCc1cccc(COc2ccccc2)c1)[C@@H]1CCCN1S(=O)(=O)c1ccc(Cl)s1` [Example 70]: the IC50 is 340 nM.

For the compound `O=C(NCc1cccc(COc2ccc(C(F)(F)F)cc2)c1)[C@@H]1CCCN1S(=O)(=O)c1ccc(Cl)s1` [Example 71], the IC50 stood at 270 nM.

On to `CC(NC(=O)[C@@H]1CCCN1S(=O)(=O)c1ccc(Cl)s1)c1ccc(COc2ccccc2)cc1` (stereo partly shown) [Example 72], for which the IC50 amounted to 3800 nM.

In the case of `O=C(NCc1ccc(COc2ccccc2)cc1Cl)[C@@H]1CCCN1S(=O)(=O)c1ccc(Cl)s1` [Example 73], the IC50 was 150 nM.

For `O=C(NCc1ccc(COc2ccc(C(F)(F)F)cc2)cc1Cl)[C@@H]1CCCN1S(=O)(=O)c1ccc(Cl)s1` [Example 74], the IC50 is 180 nM.

`O=C(NCc1ccc(COc2cccc(C(F)(F)F)c2)cc1Cl)[C@@H]1CCCN1S(=O)(=O)c1ccc(Cl)s1` [Example 75]: the IC50 amounted to 140 nM.

For the compound `O=C(NCc1ccc(COc2ccccc2)cc1C(F)(F)F)[C@@H]1CCCN1S(=O)(=O)c1ccc(Cl)s1` [Example 76], the IC50 worked out at 160 nM.

Take `O=C(NCc1ccc(COc2ccc(C(F)(F)F)cc2)cc1C(F)(F)F)[C@@H]1CCCN1S(=O)(=O)c1ccc(Cl)s1` [Example 77]: the IC50 amounted to 100 nM.

Turning to `O=C(NCc1ccc(COc2cccc(C(F)(F)F)c2)cc1C(F)(F)F)[C@@H]1CCCN1S(=O)(=O)c1ccc(Cl)s1` [Example 78], the IC50 turned out to be 120 nM.

For the compound `O=C(NCc1ccccc1COc1ccccc1)[C@@H]1CCCN1S(=O)(=O)c1ccc(Cl)s1` [Example 79], the IC50 amounted to 2200 nM.

With `O=C(NCc1ccccc1COc1ccc(C(F)(F)F)cc1)[C@@H]1CCCN1S(=O)(=O)c1ccc(Cl)s1` [Example 80], the IC50 was found to be 270 nM.

Consider `O=C(NCc1ccccc1COc1cccc(C(F)(F)F)c1)[C@@H]1CCCN1S(=O)(=O)c1ccc(Cl)s1` [Example 81], for which the IC50 worked out at 580 nM.

Regarding `O=C(NCc1ccc(COc2ccccc2)cc1)[C@@H]1CCCN1S(=O)(=O)c1ccc(F)cc1` [Example 82, (2S)-1-[(4-fluorophenyl)sulfonyl]-N-{[4-(phenoxymethyl)phenyl]methyl}pyrrolidine-2-carboxamide], the IC50 turned out to be 1200 nM.

For `O=C(NCc1ccc(COc2ccccc2)cc1)[C@@H]1C=CCN1S(=O)(=O)c1ccc(Cl)s1` [Example 83], the IC50 worked out at 430 nM.

For `O=C(NCc1ccc(COc2ccccc2)cc1)[C@@H]1CCCN1S(=O)(=O)c1ccc(F)c(F)c1` [Example 84], the IC50 was 1100 nM.

With `O=C(NCc1ccc(COc2ccccc2)cc1)[C@@H]1CCCN1S(=O)(=O)c1cccc(F)c1` [Example 85], the IC50 stood at 3500 nM.

For the compound `O=C(NCc1ccc(COc2ccccc2)cc1)[C@@H]1CCCN1S(=O)(=O)c1cccs1` [Example 86], the IC50 is 7000 nM.

`O=C(NCc1ccc(COc2ccccc2)cc1)[C@@H]1CC(O)CN1S(=O)(=O)c1ccc(Cl)s1` (stereo partly shown) [Example 87]: the IC50 came out at 7700 nM.

Turning to `O=C(NCc1nc(COc2ccc(C(F)(F)F)cc2)cs1)[C@@H]1CCCN1S(=O)(=O)c1ccc(Cl)s1` [Example 88], the IC50 stood at 370 nM.

As to `O=C(NCc1nc(COc2cccc(C(F)(F)F)c2)cs1)[C@@H]1CCCN1S(=O)(=O)c1ccc(Cl)s1` [Example 89], the IC50 is 340 nM.

Take `O=C(NCc1nc(COc2ccccc2C(F)(F)F)cs1)[C@@H]1CCCN1S(=O)(=O)c1ccc(Cl)s1` [Example 90]: the IC50 came out at 150 nM.

With `O=C(NCc1ccc(OCc2ccccc2)cc1)[C@@H]1CCCN1S(=O)(=O)c1ccc(Cl)s1` [Example 91], the IC50 turned out to be 94 nM.

On to `O=C(NCc1ccc(OCc2ccc(C(F)(F)F)cc2)cc1)[C@@H]1CCCN1S(=O)(=O)c1ccc(Cl)s1` [Example 92], for which the IC50 came out at 110 nM.

Take `O=C(NCc1ccc(OCc2cccc(C(F)(F)F)c2)cc1)[C@@H]1CCCN1S(=O)(=O)c1ccc(Cl)s1` [Example 93]: the IC50 was found to be 4200 nM.

Consider `O=C(NCc1ccc(OCc2ccccc2C(F)(F)F)cc1)[C@@H]1CCCN1S(=O)(=O)c1ccc(Cl)s1` [Example 94], for which the IC50 came to 370 nM.

In the case of `O=C(NCc1cccc(OCc2ccccc2)c1)[C@@H]1CCCN1S(=O)(=O)c1ccc(Cl)s1` [Example 95], the IC50 worked out at 22 nM.

In the case of `O=C(NCc1cccc(OCc2ccc(C(F)(F)F)cc2)c1)[C@@H]1CCCN1S(=O)(=O)c1ccc(Cl)s1` [Example 96], the IC50 came out at 19 nM.

In the case of `O=C(NCc1cccc(OCc2ccc(OC(F)(F)F)cc2)c1)[C@@H]1CCCN1S(=O)(=O)c1ccc(Cl)s1` [Example 97], the IC50 came to 30 nM.

In the case of `O=C(NCc1cccc(OCc2ccc(Cl)cc2)c1)[C@@H]1CCCN1S(=O)(=O)c1ccc(Cl)s1` [Example 98], the IC50 turned out to be 10 nM.

Take `O=C(NCc1cccc(OCc2ccc(F)cc2)c1)[C@@H]1CCCN1S(=O)(=O)c1ccc(Cl)s1` [Example 99]: the IC50 was 12 nM.

For `O=C(NCc1cccc(OCc2cccc(C(F)(F)F)c2)c1)[C@@H]1CCCN1S(=O)(=O)c1ccc(Cl)s1` [Example 100], the IC50 was determined as 8.9 nM.

With `O=C(NCc1cccc(OCc2cccc(OC(F)(F)F)c2)c1)[C@@H]1CCCN1S(=O)(=O)c1ccc(Cl)s1` [Example 101], the IC50 came out at 16 nM.

For the compound `O=C(NCc1cccc(OCc2cccc(Cl)c2)c1)[C@@H]1CCCN1S(=O)(=O)c1ccc(Cl)s1` [Example 102], the IC50 came to 15 nM.

As to `O=C(NCc1cccc(OCc2cccc(F)c2)c1)[C@@H]1CCCN1S(=O)(=O)c1ccc(Cl)s1` [Example 103], the IC50 is 15 nM.

With `O=C(NCc1cccc(OCc2ccccc2C(F)(F)F)c1)[C@@H]1CCCN1S(=O)(=O)c1ccc(Cl)s1` [Example 104], the IC50 was 80 nM.

Turning to `O=C(NCc1ccc(F)c(OCc2ccc(C(F)(F)F)cc2)c1F)[C@@H]1CCCN1S(=O)(=O)c1ccc(Cl)s1` [Example 105], the IC50 stood at 130 nM.

For `O=C(NCc1c(F)ccc(OCc2ccc(C(F)(F)F)cc2)c1Cl)[C@@H]1CCCN1S(=O)(=O)c1ccc(Cl)s1` [Example 106], the IC50 is 1200 nM.

For the compound `O=C(NCc1cccc(OCc2ccccc2)c1)[C@@H]1C=CCN1S(=O)(=O)c1ccc(Cl)s1` [Example 107, (2S)—N-[(3-benzyloxyphenyl)methyl]-1-(5-chlorothiophene-2-sulfonyl)-2,5-dihydropyrrole-2-carboxamide], the IC50 amounted to 14 nM.

Consider `O=C(NCc1cccc(OCc2ccccc2)c1)[C@@H]1CCCN1S(=O)(=O)c1ccc(F)cc1` [Example 108], for which the IC50 was found to be 66 nM.

As to `O=C(NCc1cccc(OCc2ccccc2)c1)[C@@H]1CCN1S(=O)(=O)c1ccc(Cl)s1` [Example 109], the IC50 is 120 nM.

For the compound `O=C(NCc1cccc(OCc2ccccc2)c1)[C@@H]1CCCN1S(=O)(=O)c1ccc(F)c(F)c1` [Example 110], the IC50 turned out to be 76 nM.

On to `O=C(NCc1cccc(OCc2ccc(C(F)(F)F)cc2)c1)[C@@H]1C=CCN1S(=O)(=O)c1ccc(F)cc1` [Example 111], for which the IC50 was 24 nM.

As for `O=C(NCc1cccc(OCc2ccc(C(F)(F)F)cc2)c1)[C@@H]1CCN1S(=O)(=O)c1ccc(F)cc1` [Example 112], the IC50 is 230 nM.

In the case of `O=C(NCc1cccc(OCc2ccc(C(F)(F)F)cc2)c1)[C@@H]1CCCN1S(=O)(=O)c1ccc(Cl)cc1` [Example 113], the IC50 amounted to 71 nM.

The assay is the same for the next values; noted with them: allylisothiocyanate 20 μM stimulation, FLIPR calcium assay; read-out: antagonism hTRPA1.
With `O=C(NCc1cccc(Oc2ccnc(C(F)(F)F)c2)c1)[C@@H]1CCCN1S(=O)(=O)c1ccc(F)cc1` [Example 114, (2S)-1-(4-fluorophenyl)sulfonyl-N-[[3-[[2-(trifluoromethyl)-4-pyridyl]oxy]phenyl]methyl]pyrrolidine-2-carboxamide], the IC50 was 570 nM.

With `O=C(NCc1cccc(Oc2ccc(C(F)(F)F)nc2)c1)[C@@H]1CCCN1S(=O)(=O)c1ccc(F)cc1` [Example 115, (2S)-1-(4-fluorophenyl)sulfonyl-N-[[3-[[6-(trifluoromethyl)-3-pyridyl]oxy]phenyl]methyl]pyrrolidine-2-carboxamide], the IC50 worked out at 210 nM.

On to `CN(C)c1cccc(Oc2cccc(CNC(=O)[C@@H]3CCCN3S(=O)(=O)c3ccc(F)cc3)c2)c1` [Example 116, (2S)-N-[[3-[3-(dimethylamino)phenoxy]phenyl]methyl]-1-(4-fluorophenyl)sulfonyl-pyrrolidine-2-carboxamide], for which the IC50 was determined as 1300 nM.

For the compound `CN(C)c1ccc(Oc2cccc(CNC(=O)[C@@H]3CCCN3S(=O)(=O)c3ccc(F)cc3)c2)cc1` [Example 117, (2S)-N-[[3-[4-(dimethylamino)phenoxy]phenyl]methyl]-1-(4-fluorophenyl)sulfonyl-pyrrolidine-2-carboxamide], the IC50 came out at 9900 nM.

`N#Cc1ccc(Oc2cccc(CNC(=O)[C@@H]3CCCN3S(=O)(=O)c3ccc(F)cc3)c2)cc1` [Example 118, (2S)-N-[[3-(4-cyanophenoxy)phenyl]methyl]-1-(4-fluorophenyl)sulfonyl-pyrrolidine-2-carboxamide]: the IC50 was determined as 270 nM.

As to `CC(C)(C)c1ccc(Oc2cccc(CNC(=O)[C@@H]3CCCN3S(=O)(=O)c3ccc(F)cc3)c2)cc1` [Example 119, (2S)-N-[[3-(4-tert-butylphenoxy)phenyl]methyl]-1-(4-fluorophenyl)sulfonyl-pyrrolidine-2-carboxamide], the IC50 stood at 1000 nM.

As for `O=C(NCc1cccc(OCc2ccc(Cl)cc2)c1)[C@@H]1CCCN1S(=O)(=O)c1ccc(F)cc1` [Example 120, (2S)-N-[[3-[(4-chlorophenyl)methoxy]phenyl]methyl]-1-(4-fluorophenyl)sulfonyl-pyrrolidine-2-carboxamide], the IC50 came to 17 nM.

Regarding `O=C(NCc1cccc(OCc2ccc(F)cc2)c1)[C@@H]1CCCN1S(=O)(=O)c1ccc(F)cc1` [Example 121, (2S)-N-[[3-[(4-fluorophenyl)methoxy]phenyl]methyl]-1-(4-fluorophenyl)sulfonyl-pyrrolidine-2-carboxamide], the IC50 was determined as 31 nM.
